Data taken from the supplement of paper PMC10307832.

Columns and labels:
Assay in all cases: relative viability (nuclei count vs DMSO), 5 days (fraction); higher = more cells survive
Kobe2602 + Palbociclib = compound: C1=CC(=CC=C1NC(=S)NNC2=C(C=C(C=C2[N+](=O)[O-])C(F)(F)F)[N+](=O)[O-])F [Kobe2602] + CC(=O)c1c(C)c2cnc(Nc3ccc(N4CCNCC4)cn3)nc2n(C2CCCC2)c1=O [Palbociclib] (partner 0.5 µM)
Summary of the method: (§1)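 Lung cancer cell lines were seeded in 1536-well plates and dosed by pin tool the next day, with either a single drug or a fixed anchor-drug dose combined with five library-drug doses (not always all listed) spaced in √10 steps. Five days later, one step fixed the cells and stained their nuclei (final 0.05% Triton X-100, 1% formaldehyde, 1 ug/ml Hoechst), and nuclei were counted on 4× images. Relative viability is the nuclei count in treated wells divided by the count in vehicle wells, and each value is the median of duplicate plates.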

[1] = compound: COc1cc2nccc(Oc3ccc(NC(=O)C4(C(=O)Nc5ccc(F)cc5)CC4)cc3)c2cc1OC [Cabozantinib] + N=C(N)NC(=N)NCCc1ccccc1 [Phenformin] (partner 250 µM)
Summary of the method: as §1

Cabozantinib + Olaparib = compound: COc1cc2nccc(Oc3ccc(NC(=O)C4(C(=O)Nc5ccc(F)cc5)CC4)cc3)c2cc1OC [Cabozantinib] + O=C(c1cc(Cc2n[nH]c(=O)c3ccccc23)ccc1F)N1CCN(C(=O)C2CC2)CC1 [Olaparib] (partner 8 µM)
Summary of the method: as §1

Zosuquidar + Phenformin = compound: O[C@@H](COc1cccc2ncccc12)CN1CCN([C@@H]2c3ccccc3[C@@H]3[C@H](c4ccccc42)C3(F)F)CC1 [Zosuquidar] + N=C(N)NC(=N)NCCc1ccccc1 [Phenformin] (partner 250 µM)
Summary of the method: as §1

| Cell Line | relative viability (Kobe2602 + Palbociclib; first compound 0.2 µM) | relative viability (Kobe2602 + Palbociclib; first compound 0.6325 µM) | relative viability (Kobe2602 + Palbociclib; first compound 2 µM) | relative viability (Kobe2602 + Palbociclib; first compound 6.325 µM) | relative viability (Kobe2602 + Palbociclib; first compound 20 µM) | relative viability ([1]; first compound 0.02 µM) | relative viability ([1]; first compound 0.06325 µM) | relative viability ([1]; first compound 0.2 µM) | relative viability ([1]; first compound 0.6325 µM) | relative viability ([1]; first compound 2 µM) | relative viability (Cabozantinib + Olaparib; first compound 0.02 µM) | relative viability (Cabozantinib + Olaparib; first compound 0.06325 µM) | relative viability (Cabozantinib + Olaparib; first compound 0.2 µM) | relative viability (Cabozantinib + Olaparib; first compound 0.6325 µM) | relative viability (Cabozantinib + Olaparib; first compound 2 µM) | relative viability (Zosuquidar + Phenformin; first compound 0.01 µM) | relative viability (Zosuquidar + Phenformin; first compound 0.03162 µM) | relative viability (Zosuquidar + Phenformin; first compound 0.1 µM) | relative viability (Zosuquidar + Phenformin; first compound 0.3162 µM) | relative viability (Zosuquidar + Phenformin; first compound 1 µM) |
| --- | --- | --- | --- | --- | --- | --- | --- | --- | --- | --- | --- | --- | --- | --- | --- | --- | --- | --- | --- | --- |
| NCI-H2009 | 0.241 | 0.258 | 0.294 | 0.24 | 0.254 | 0.532 | 0.549 | 0.547 | 0.518 | 0.459 | 0.718 | 0.71 | 0.703 | 0.712 | 0.762 | 0.503 | 0.47 | 0.481 | 0.518 | 0.498 |
| NCI-H2405 | 0.52 | 0.572 | 0.537 | 0.553 | 0.528 | 0.335 | 0.46 | 0.484 | 0.39 | 0.418 | 0.859 | 1.01 | 0.931 | 0.899 | 0.804 | 0.406 | 0.348 | 0.344 | 0.46 | 0.388 |
| SW 900 | 0.621 | 0.53 | 0.559 | 0.567 | 0.551 | 0.692 | 0.668 | 0.662 | 0.552 | 0.408 | 0.877 | 0.941 | 0.664 | 0.636 | 0.684 | 0.597 | 0.578 | 0.618 | 0.738 | 0.557 |
| NCI-H1563 |  |  |  |  |  | 0.601 | 0.668 | 0.658 | 0.702 | 0.709 |  |  |  |  |  | 0.671 | 0.681 | 0.595 | 0.666 | 0.683 |
| NCI-H1944 | 0.351 | 0.343 | 0.311 | 0.333 | 0.371 | 0.17 | 0.213 | 0.193 | 0.208 | 0.204 | 0.426 | 0.413 | 0.404 | 0.401 | 0.52 | 0.19 | 0.192 | 0.196 | 0.225 | 0.196 |
| NCI-H322M | 0.477 | 0.535 | 0.485 | 0.491 | 0.559 | 0.779 | 0.922 | 0.589 | 0.803 | 0.816 | 0.831 | 0.902 | 0.695 | 0.781 | 0.675 | 0.809 | 0.856 | 0.586 | 0.793 | 0.858 |
| Calu-6 |  |  |  |  |  |  |  |  |  |  | 0.595 | 0.662 | 0.613 | 0.539 | 0.517 |  |  |  |  |  |
| EBC-1 |  |  |  |  |  |  |  |  |  |  | 0.748 | 0.452 | 0.16 | 0.136 | 0.123 |  |  |  |  |  |
| NCI-H1703 |  |  |  |  |  |  |  |  |  |  | 0.398 | 0.232 | 0.224 | 0.215 | 0.149 |  |  |  |  |  |
| NCI-H1648 | 0.237 | 0.275 | 0.248 | 0.228 | 0.283 |  |  |  |  |  | 1.17 | 0.995 |  | 1.02 | 0.651 |  |  |  |  |  |
| A549 |  |  |  |  |  | 0.407 | 0.173 | 0.215 | 0.156 | 0.147 | 0.291 | 0.628 | 0.34 | 0.212 | 0.309 | 0.19 | 0.176 | 0.145 | 0.255 | 0.172 |
| NCI-H596 |  |  |  |  |  | 0.728 | 0.883 | 0.778 | 0.796 | 0.664 | 0.75 | 0.768 | 0.756 | 0.7 | 0.793 | 0.765 |  | 0.798 | 0.909 | 0.761 |
